These results are taken from patent US10358663B2, “Method of production of 2,4-dihydroxybutyric acid” (ADISSEO FRANCE S.A.S., priority 2010, dated 2019).

Assay [1] deals with T1, malic enzyme (Rattus norvegicus, UniProt P13697).
T1 sequence (P13697 1-572): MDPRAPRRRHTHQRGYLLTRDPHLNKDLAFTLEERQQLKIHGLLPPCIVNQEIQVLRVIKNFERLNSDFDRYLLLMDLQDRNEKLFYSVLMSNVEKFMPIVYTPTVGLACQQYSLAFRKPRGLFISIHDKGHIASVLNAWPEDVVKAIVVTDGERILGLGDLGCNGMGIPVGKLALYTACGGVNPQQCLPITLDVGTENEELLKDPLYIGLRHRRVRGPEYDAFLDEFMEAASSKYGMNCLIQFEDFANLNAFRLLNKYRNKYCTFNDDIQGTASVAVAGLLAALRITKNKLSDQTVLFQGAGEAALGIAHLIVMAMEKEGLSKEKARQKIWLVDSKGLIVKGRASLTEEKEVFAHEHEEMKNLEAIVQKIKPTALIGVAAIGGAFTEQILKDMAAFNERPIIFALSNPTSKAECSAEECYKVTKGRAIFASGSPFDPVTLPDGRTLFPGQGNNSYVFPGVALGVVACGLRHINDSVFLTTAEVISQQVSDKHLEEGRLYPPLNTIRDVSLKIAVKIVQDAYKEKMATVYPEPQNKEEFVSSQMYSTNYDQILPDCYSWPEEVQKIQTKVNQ
Particulars: cited from earlier work.

Assay [2] concerns the target E. coli aspartate kinase LysC variant E119G E250K, SEQ ID NO: 39 (Escherichia coli, UniProt P08660, E119G/E250K). Put plainly: Lysine inhibition of malate kinase activity, LysC E119G E250K. The assay is classed as biochemical. Particulars: elevated lysine concentrations. On the procedure: (§1) The assay mixture contained 50 mM Hepes (pH 7.5), 50 mM KCl, 5 mM MgCl2, 0.24 mM NADH, 0.96 mM ATP, 0.96 mM PEP, 9 μg/mL of lactate dehydrogenase (Sigma, L2500), 12.4 μg/mL pyruvate kinase (Sigma, P1506), and appropriate amounts of purified aspartate (malate) kinase. Reactions were started by adding 50 mM (L)-aspartate or (L)-malate. Enzymatic assays were carried out at 30° C. in 96-well flat bottomed microtiter plates in a final volume of 250 μL. The reactions were followed by the characteristic absorption of NADH at 340 nm in a microplate reader (BioRad 680XR).
(§2) Expression and purification of enzymes: Protein expression for the His-tagged enzymes LysC E119G, LysC E119G E250K, LysC E119G T344M, LysC E119G S345L, LysC E119G T352I was carried out as described in Example 1.
(§3) Enzymatic assay: Malate kinase activities were assayed as described in Example 1. Lysine concentration in the reaction buffer was varied.

Assay [3] addresses E. coli aspartate kinase LysC variant E119G T344M, SEQ ID NO: 41 (Escherichia coli, UniProt P08660, E119G/T344M). Kind of assay: Lysine inhibition of malate kinase activity, LysC E119G T344M. The class given is biochemical. Particulars: elevated lysine concentrations. On the procedure:
as §1, §2, §3

Assay [4] has as its target E. coli aspartate kinase LysC variant E119G S345L, SEQ ID NO: 45 (Escherichia coli, UniProt P08660, E119G/S345L). Put plainly: Lysine inhibition of malate kinase activity, LysC E119G S345L. The assay is classed as biochemical. Particulars: elevated lysine concentrations. On the procedure:
as §1, §2, §3

In assay [5] the target is T2, Metallosphaera sedula succinic semialdehyde reductase Ms-SSR, wild type, SEQ ID NO: 76 (Metallosphaera sedula, UniProt A4YGN0).
T2 sequence (A4YGN0 1-360): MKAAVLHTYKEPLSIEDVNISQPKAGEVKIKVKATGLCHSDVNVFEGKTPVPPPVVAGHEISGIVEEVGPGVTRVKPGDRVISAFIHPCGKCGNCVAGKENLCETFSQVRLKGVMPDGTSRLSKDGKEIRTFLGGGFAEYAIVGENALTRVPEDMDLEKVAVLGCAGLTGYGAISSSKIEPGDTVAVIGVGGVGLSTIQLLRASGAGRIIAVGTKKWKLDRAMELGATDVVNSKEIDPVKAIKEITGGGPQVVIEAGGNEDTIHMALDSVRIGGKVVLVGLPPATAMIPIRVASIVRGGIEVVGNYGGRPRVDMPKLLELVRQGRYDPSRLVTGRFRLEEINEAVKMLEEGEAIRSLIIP
Put plainly: Malate semialdehyde reductase assay, Ms-SSR wild type. The class given is biochemical. Particulars: pH 7.5, 30° C. How it is done:
(§4) Test for Malate Semialdehyde Reductase Activity: Reaction: (L)-Malate semialdehyde+NAD(P)H→(L)-2,4-dihydroxybutyric acid+NAD(P)
(§5) The assay mixture contained 200 mM Hepes (pH 7.5), 50 mM KCl, 5 mM MgCl2, 0.24 mM NADH or NADPH, and appropriate amounts of purified enzyme. Reactions were started by adding 10 mM (L)-malate semialdehyde (malate semialdehyde was prepared freshly for each test, see Example 4). Enzymatic assays were carried out at 30° C. in 96-well flat bottomed microtiter plates in a final volume of 250 μL. The reactions were followed by the characteristic absorption of NAD(P)H at 340 nm in a microplate reader (BioRad 680XR).

Assay [6] has as its target T3, Metallosphaera sedula succinic semialdehyde reductase Ms-SSR variant H39R, SEQ ID NO: 225 (Metallosphaera sedula, UniProt A4YGN0, H39R).
T3 sequence (A4YGN0 1-360 H39R): T2 sequence (A4YGN0 1-360) with H39R
Put plainly: Malate semialdehyde reductase assay, Ms-SSR H39R. Conditions: pH 7.5, 30° C. The assay is classed as biochemical. How it is done: as §4, §5
(§6) Site-directed mutagenesis was carried out using the oligonucleotide pairs listed in Table 8 and the pMs-SSR plasmid as the template. Point mutations to change the amino acid sequences were introduced by PCR (Phusion 1U, HF buffer 20% (v/v), dNTPs 2.5 mM, direct and reverse primers 1 μM each, template plasmid 200 ng, water). When possible, plasmids created by PCR contained new restriction sites (introduced using silent mutations) in addition to the functional mutation to facilitate identification of mutated clones. The PCR products were digested by DpnI at 37° C. for 1 h to remove template DNA, and transformed into NEB 5-alpha competent E. coli cells (NEB). […]

Assay [7] has as its target T4, Metallosphaera sedula succinic semialdehyde reductase Ms-SSR variant N43H, SEQ ID NO: 227 (Metallosphaera sedula, UniProt A4YGN0, N43H).
T4 sequence (A4YGN0 1-360 N43H): T2 sequence (A4YGN0 1-360) with N43H
Put plainly: Malate semialdehyde reductase assay, Ms-SSR N43H. The assay is classed as biochemical. Particulars: pH 7.5, 30° C. How it is done:
as §4, §5, §6

The target in assay [8] is T5, Metallosphaera sedula succinic semialdehyde reductase Ms-SSR variant H39R N43H, SEQ ID NO: 81 (Metallosphaera sedula, UniProt A4YGN0, H39R/N43H).
T5 sequence (A4YGN0 1-360 H39R/N43H): T2 sequence (A4YGN0 1-360) with H39R, N43H
Kind of assay: Malate semialdehyde reductase assay, Ms-SSR H39R N43H. Particulars: pH 7.5, 30° C. The class given is biochemical. How it is done:
as §4, §5, §6

Where a chain is given by its changes, count along the chain named.

Sequence of E. coli aspartate kinase LysC variant E119G S345L, SEQ ID NO: 45 (P08660 whole entry E119G/S345L): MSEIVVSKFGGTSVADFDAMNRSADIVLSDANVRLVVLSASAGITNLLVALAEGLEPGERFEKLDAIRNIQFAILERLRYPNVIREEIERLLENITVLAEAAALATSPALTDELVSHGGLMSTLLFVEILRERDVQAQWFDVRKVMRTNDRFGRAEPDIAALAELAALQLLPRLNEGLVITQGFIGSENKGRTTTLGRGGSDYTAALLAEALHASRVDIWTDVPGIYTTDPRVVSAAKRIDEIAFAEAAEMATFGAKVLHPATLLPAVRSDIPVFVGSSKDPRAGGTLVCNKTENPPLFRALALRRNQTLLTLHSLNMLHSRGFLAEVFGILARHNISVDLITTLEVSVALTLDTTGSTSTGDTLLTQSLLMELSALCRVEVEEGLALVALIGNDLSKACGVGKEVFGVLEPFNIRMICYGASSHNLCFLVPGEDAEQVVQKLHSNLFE
Sequence of E. coli aspartate kinase LysC variant E119G T344M, SEQ ID NO: 41 (P08660 whole entry E119G/T344M): as the sequence (P08660 whole entry E119G/S345L) above, with T344M, L345S counted along it
Sequence of E. coli aspartate kinase LysC variant E119G E250K, SEQ ID NO: 39 (P08660 whole entry E119G/E250K): as the sequence (P08660 whole entry E119G/S345L) above, with E250K, L345S counted along it

Take `O=C(O)C(O)CCO` (centres unmarked) [DHB, 2,4-dihydroxybutyric acid]: the “Mode of inhibition of malic enzyme” value in assay [1] was “competitive inhibitor”.
Consider `NCCCC[C@H](N)C(=O)O` [lysine], for which the “sensitivity of malate kinase activity to lysine” value in assay [2], in assay [3] and in assay [4] was “largely insensitive” in each case.
Regarding `O=CC[C@H](O)C(=O)O` [malate semialdehyde, (L)-malate semialdehyde], the Maximum activity in assay [5] is listed as 4.9 μmol/(min* mgprot); in assay [6], 1.7 μmol/(min* mgprot); in assay [7], 4.3 μmol/(min* mgprot); in assay [8] it was 4.7 μmol/(min* mgprot).
